Measurements as given in BindingDB's records for doi:10.7270/Q2SB4462 (Burnham Center For Chemical Genomics, 2011).
pIC50: −log10 of the molar value.

molecular target: T1, Ubiquitin-conjugating enzyme E2 N (Homo sapiens, UniProt P61088); test: concentration-dependent UBC13 chain formation blockade – biochemical, TR-FRET, reconfirmation, dose response (AID 493182)
T1 sequence (P61088 whole entry): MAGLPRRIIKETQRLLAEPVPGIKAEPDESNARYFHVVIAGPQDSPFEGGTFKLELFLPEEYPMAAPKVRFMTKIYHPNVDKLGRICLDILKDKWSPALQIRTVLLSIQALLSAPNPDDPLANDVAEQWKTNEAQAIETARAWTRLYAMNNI

Structure (SMILES) | pIC50
O=C1N=c2ccccc2=C1NNC(=S)NCC1CCCO1 (configuration not stated) | 6.01
Cc1cccc(NC(=S)NNC2=c3ccccc3=NC2=O)c1 | 6.23
COc1ccc(CN=Nc2cc(C)nc3ccc(OC)cc23)c(OC)c1 | 5.19
Cc1cc(C)c2c(c1)=C(NNC(=S)NCC1CCCO1)C(=O)N=2 (configuration not stated) | 6.29
O=C1Nc2ccc([N+](=O)[O-])cc2C1=NNC(=S)NCC1CCCO1 (configuration not stated) | 6.18
NC(=S)NN=C1C(=O)N(CCCl)c2ccccc21 | 4.97
COC(=O)c1ccc(CN2C(=O)C(=NNC(N)=S)c3ccccc32)o1 | < 4.70
CCOC(=O)C1C(COC(=O)c2ncc(Cl)c(Cl)c2Cl)=NC(=O)NC1C (configuration not stated) | 5.03
COCCNC(=S)NN=C1C(=O)Nc2ccc([N+](=O)[O-])cc21 [1-(2-methoxyethyl)-3-[(5-nitro-2-oxoindol-3-yl)amino]thiourea] | 5.82
O=C1Nc2ccccc2/C1=N/NC(=S)Nc1ccc(O)cc1 [1-(4-hydroxyphenyl)-3-[(2-oxidanylideneindol-3-yl)amino]thiourea] | 6.12
CCCCNC(=S)N/N=C1\C(=O)Nc2ccccc21 [1-butyl-3-[(2-oxidanylideneindol-3-yl)amino]thiourea] | 5.22
CCNC(=S)NNC1=c2cc(C(C)C)ccc2=NC1=O [1-ethyl-3-[(2-oxo-5-propan-2-yl-3-indolyl)amino]thiourea] | 5.60
CCN(CC)CCOC(=O)c1ccc(N=CC(C#N)c2nc(-c3ccc4c(c3)OCO4)cs2)cc1 (configuration not stated) [2-(diethylamino)ethyl 4-[[(Z)-2-[4-(1,3-benzodioxol-5-yl)-1,3-thiazol-2-yl]-2-cyano-ethenyl]amino]benzoate] | 5.29
CCN(CC)CCOC(=O)c1ccc(N=CC(C#N)c2nc(-c3cc4ccccc4oc3=O)cs2)cc1 (configuration not stated) [2-(diethylamino)ethyl 4-[[(Z)-2-cyano-2-[4-(2-oxochromen-3-yl)-1,3-thiazol-2-yl]ethenyl]amino]benzoate] | 5.46
CCN(CC)CCOC(=O)c1ccc(N=CC(C#N)c2nc(-c3ccc(OC)cc3)cs2)cc1 (configuration not stated) [4-[[(Z)-2-cyano-2-[4-(4-methoxyphenyl)-2-thiazolyl]ethenyl]amino]benzoic acid 2-(diethylamino)ethyl ester] | 5.37
CC(=O)N1N=C(C2C(=O)N(C)C(=O)N(C)C2=O)CC1c1ccccc1 (configuration not stated) [5-(1-acetyl-5-phenylpyrazolidin-3-ylidene)-1,3-dimethyl-1,3-diazinane-2,4,6-trione] | 4.71
N=C(N)C1=CC(=O)/C(=C/C=c2ccc(=C(N)N)cc2)C=C1 [(4E)-4-[2-[4-[bis(azanyl)methylidene]cyclohexa-2,5-dien-1-ylidene]ethylidene]-3-oxidanylidene-cyclohexa-1,5-diene-1-carboximidamide;2-oxidanylethanesulfonic acid] | 5.55
C#CCOCCOCCOCCNc1nc(N2CCN(C(=O)CCCCCCCCCCNC(=O)[C@H](CCCCN)n3cc(CCCC(=O)O)nn3)CC2)nc(N2CCN(C(=O)CCCCCCCCCCNC(=O)[C@H](CCCN=C(N)N)n3cc(C[C@@H](C)CC)nn3)CC2)n1 [EK-IR] | 5.44
C#CCOCCOCCOCCNc1nc(N2CCN(C(=O)CCCCCCCCCCNC(=O)[C@H]([C@@H](C)CC)n3cc(CCCCN=C(N)N)nn3)CC2)nc(N2CCN(C(=O)CCCCCCCCCCNC(=O)[C@@H]([C@H](C)O)n3cc(C)nn3)CC2)n1 [GT-RI] | 5.33

Structure (SMILES) | pIC50
C#CCOCCOCCOCCNc1nc(N2CCN(C(=O)CCCCCCCCCCNC(=O)Cn3cc(CCCCCN)nn3)CC2)nc(N2CCN(C(=O)CCCCCCCCCCNC(=O)[C@H]([C@@H](C)CC)n3cc(CCCCN=C(N)N)nn3)CC2)n1 [KG-RI] | 5.68
C#CCOCCOCCOCCNc1nc(N2CCN(C(=O)CCCCCCCCCCNC(=O)Cn3cc(CCCCCN)nn3)CC2)nc(N2CCN(C(=O)CCCCCCCCCCNC(=O)Cn3cc(C[C@@H](C)O)nn3)CC2)n1 [KG-TG] | 5.13
C#CCOCCOCCOCCNc1nc(N2CCN(C(=O)CCCCCCCCCCNC(=O)[C@H]([C@@H](C)CC)n3cc(CCCCCN)nn3)CC2)nc(N2CCN(C(=O)CCCCCCCCCCNC(=O)[C@H](CCCCN)n3cc(CCCC(=O)O)nn3)CC2)n1 [KI-EK] | 5.22
C#CCOCCOCCOCCNc1nc(N2CCN(C(=O)CCCCCCCCCCNC(=O)[C@@H](CCC(=O)O)n3cc(CCCCCN)nn3)CC2)nc(N2CCN(C(=O)CCCCCCCCCCNC(=O)[C@H]([C@@H](C)CC)n3cc(CCCCCN)nn3)CC2)n1 [KI-KE] | 5.18
C#CCOCCOCCOCCNc1nc(N2CCN(C(=O)[C@H](Cc3cc4ccccc4[nH]3)n3cc([C@@H](N)CC(C)C)nn3)CC2)nc(N2CCN(C(=O)[C@H](Cc3cc4ccccc4[nH]3)n3cc([C@@H](N)CC(C)C)nn3)CC2)n1 [LW-LW] | 5.19
CCOC(=O)c1c(C)c2c(n1C)CCCC2N=O (configuration not stated) [MLS000026784] | 5.06
C#CCOCCOCCOCCNc1nc(N2CCN(C(=O)[C@H](CCCCN)n3cc([C@@H](N)C(C)CC)nn3)CC2)nc(N2CCN(C(=O)[C@H](Cc3cc4ccccc4[nH]3)n3cc([C@@H](N)C(C)CC)nn3)CC2)n1 (some centres not stated) [MLS000562580] | 5.57
C#CCOCCOCCOCCNc1nc(N2CCN(C(=O)[C@H](Cc3cc4ccccc4[nH]3)n3cc([C@@H](N)C(C)CC)nn3)CC2)nc(N2CCN(C(=O)[C@H](CCCCN)n3cc([C@@H](N)CC(C)C)nn3)CC2)n1 (some centres not stated) [MLS000562581] | 5.68
COCCNC(=S)NNC1=c2cc(C)cc(C)c2=NC1=O [MLS000774564] | 6.25
CCOC(=O)C1C(COC(=O)c2cc(OC)c(OC)c(OC)c2)=NC(=O)NC1C (configuration not stated) [MLS001161811] | 5.07
Oc1c(Cc2cnc[nH]2)[nH]c(=S)n1-c1ccccc1 [MLS001163810] | 5.40
C#CCOCCOCCOCCNc1nc(N2CCN(C(=O)CCCCCCCCCCNC(=O)Cn3cc(C[C@@H](C)O)nn3)CC2)nc(N2CCN(C(=O)CCCCCCCCCCNC(=O)[C@H](CCCN=C(N)N)n3cc(C[C@@H](C)CC)nn3)CC2)n1 [MLS002153601] | 5.31
C#CCOCCOCCOCCNc1nc(N2CCN(C(=O)CCCCCCCCCCNC(=O)[C@H](CCCCN)n3cc(CCO)nn3)CC2)nc(N2CCN(C(=O)CCCCCCCCCCNC(=O)[C@H](CCCCN)n3cc(CCCC(=O)O)nn3)CC2)n1 [MLS002153608] | 4.98
C#CCOCCOCCOCCNc1nc(N2CCN(C(=O)CCCCCCCCCCNC(=O)[C@H](CCCCN)n3cc(C)nn3)CC2)nc(N2CCN(C(=O)CCCCCCCCCCNC(=O)[C@H](CCCN=C(N)N)n3cc(C[C@@H](C)CC)nn3)CC2)n1 [MLS002153614] | 5.66
C#CCOCCOCCOCCNc1nc(N2CCN(C(=O)CCCCCCCCCCNC(=O)[C@H](CCCCN)n3cc(C)nn3)CC2)nc(N2CCN(C(=O)CCCCCCCCCCNC(=O)[C@@H]([C@H](C)CC)n3cc(CCCCCN)nn3)CC2)n1 [MLS002153655] | 5.65
C#CCOCCOCCOCCNc1nc(N2CCN(C(=O)CCCCCCCCCCNC(=O)Cn3cc(CCCCCN)nn3)CC2)nc(N2CCN(C(=O)CCCCCCCCCCNC(=O)[C@H](CO)n3cc(CCCSC)nn3)CC2)n1 [MLS002153667] | 5.39
C#CCOCCOCCOCCNc1nc(N2CCN(C(=O)CCCCCCCCCCNC(=O)[C@H](CCCCN)n3cc(CCO)nn3)CC2)nc(N2CCN(C(=O)CCCCCCCCCCNC(=O)[C@@H]([C@H](C)O)n3cc(C)nn3)CC2)n1 [MLS002153685] | 5.14
C#CCOCCOCCOCCNc1nc(N2CCN(C(=O)CCCCCCCCCCNC(=O)Cn3cc(CCCCCN)nn3)CC2)nc(N2CCN(C(=O)CCCCCCCCCCNC(=O)[C@H]([C@@H](C)CC)n3cc(CCCCCN)nn3)CC2)n1 [MLS002153714] | 5.64
